# Test results from the kinase profiling compilation of Christmann-Franck et al. (2016).
# Columns and labels:
# Test in all cases: KINOMEscan competition binding
# Conditions in all cases: compound 10.0 µM
# FGR (human) = FGR (human) (UniProt P09769)
# RIOK2 (human) = RIOK2 (human) (UniProt Q9BVS4)
# EPHA5 (human) = EPHA5 (human) (UniProt P54756)
# [1] = target: JAK1 JH2 pseudokinase (human) (UniProt P23458)
# EPHB1 (human) = EPHB1 (human) (UniProt P54762)
# DCLK2 (human) = DCLK2 (human) (UniProt Q8N568)
# LTK (human) = LTK (human) (UniProt P29376)
# LTK (human), sequence (P29376 whole entry, looked up): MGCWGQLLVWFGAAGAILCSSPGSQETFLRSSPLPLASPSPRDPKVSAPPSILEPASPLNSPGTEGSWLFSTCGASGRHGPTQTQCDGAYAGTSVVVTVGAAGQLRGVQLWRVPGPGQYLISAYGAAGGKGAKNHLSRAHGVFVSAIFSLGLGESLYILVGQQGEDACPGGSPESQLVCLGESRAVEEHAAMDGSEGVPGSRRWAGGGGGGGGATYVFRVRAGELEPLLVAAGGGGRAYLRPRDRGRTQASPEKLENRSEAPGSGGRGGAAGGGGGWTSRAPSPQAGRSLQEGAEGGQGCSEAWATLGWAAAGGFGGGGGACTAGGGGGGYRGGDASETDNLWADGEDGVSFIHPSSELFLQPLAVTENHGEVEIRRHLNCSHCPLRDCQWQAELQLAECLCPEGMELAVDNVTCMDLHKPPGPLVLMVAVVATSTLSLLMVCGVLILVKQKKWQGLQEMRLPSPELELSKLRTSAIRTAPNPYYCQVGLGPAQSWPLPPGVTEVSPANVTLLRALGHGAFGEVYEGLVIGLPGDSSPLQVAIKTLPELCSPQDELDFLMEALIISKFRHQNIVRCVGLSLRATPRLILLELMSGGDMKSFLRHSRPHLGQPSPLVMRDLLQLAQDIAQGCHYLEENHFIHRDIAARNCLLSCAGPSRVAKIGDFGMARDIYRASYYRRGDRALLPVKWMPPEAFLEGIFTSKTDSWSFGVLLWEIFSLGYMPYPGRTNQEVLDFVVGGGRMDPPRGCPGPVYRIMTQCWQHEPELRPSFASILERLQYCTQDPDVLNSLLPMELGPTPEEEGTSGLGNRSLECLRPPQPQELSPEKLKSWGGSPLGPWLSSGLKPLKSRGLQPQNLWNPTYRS
# WEE1 (human) = WEE1 (human) (UniProt P30291)
# WEE1 (human), sequence (P30291 whole entry, looked up): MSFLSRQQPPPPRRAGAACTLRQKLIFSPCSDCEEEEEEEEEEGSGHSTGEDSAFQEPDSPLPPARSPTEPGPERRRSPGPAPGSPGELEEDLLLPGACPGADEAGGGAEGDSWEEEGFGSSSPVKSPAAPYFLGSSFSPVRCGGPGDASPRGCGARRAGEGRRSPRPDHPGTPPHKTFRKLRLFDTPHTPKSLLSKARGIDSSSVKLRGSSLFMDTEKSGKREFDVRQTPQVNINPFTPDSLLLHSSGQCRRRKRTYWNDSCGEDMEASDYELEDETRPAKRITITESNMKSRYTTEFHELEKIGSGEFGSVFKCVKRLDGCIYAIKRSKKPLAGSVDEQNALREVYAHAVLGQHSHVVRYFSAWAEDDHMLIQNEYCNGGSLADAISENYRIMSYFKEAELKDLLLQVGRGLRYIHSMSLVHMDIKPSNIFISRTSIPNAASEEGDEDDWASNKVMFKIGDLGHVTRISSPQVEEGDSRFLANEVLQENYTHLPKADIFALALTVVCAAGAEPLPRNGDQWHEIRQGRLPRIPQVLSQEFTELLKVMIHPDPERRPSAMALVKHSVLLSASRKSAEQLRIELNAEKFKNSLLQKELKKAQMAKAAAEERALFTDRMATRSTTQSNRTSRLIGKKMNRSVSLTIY
# RPS6KA4 KD1 (human) = RPS6KA4 KD1 (human) (UniProt O75676)
# CDK18 (human) = CDK18 (human) (UniProt Q07002)
# LIMK2 (human) = LIMK2 (human) (UniProt P53671)
# CASK (human) = CASK (human) (UniProt O14936)
# PRKCQ (human) = PRKCQ (human) (UniProt Q04759)
# DSTYK (human) = DSTYK (human) (UniProt Q6XUX3)
# MAP2K5 (human) = MAP2K5 (human) (UniProt Q13163)
# ANKK1 (human) = ANKK1 (human) (UniProt Q8NFD2)
# ANKK1 (human), sequence (Q8NFD2 whole entry, looked up): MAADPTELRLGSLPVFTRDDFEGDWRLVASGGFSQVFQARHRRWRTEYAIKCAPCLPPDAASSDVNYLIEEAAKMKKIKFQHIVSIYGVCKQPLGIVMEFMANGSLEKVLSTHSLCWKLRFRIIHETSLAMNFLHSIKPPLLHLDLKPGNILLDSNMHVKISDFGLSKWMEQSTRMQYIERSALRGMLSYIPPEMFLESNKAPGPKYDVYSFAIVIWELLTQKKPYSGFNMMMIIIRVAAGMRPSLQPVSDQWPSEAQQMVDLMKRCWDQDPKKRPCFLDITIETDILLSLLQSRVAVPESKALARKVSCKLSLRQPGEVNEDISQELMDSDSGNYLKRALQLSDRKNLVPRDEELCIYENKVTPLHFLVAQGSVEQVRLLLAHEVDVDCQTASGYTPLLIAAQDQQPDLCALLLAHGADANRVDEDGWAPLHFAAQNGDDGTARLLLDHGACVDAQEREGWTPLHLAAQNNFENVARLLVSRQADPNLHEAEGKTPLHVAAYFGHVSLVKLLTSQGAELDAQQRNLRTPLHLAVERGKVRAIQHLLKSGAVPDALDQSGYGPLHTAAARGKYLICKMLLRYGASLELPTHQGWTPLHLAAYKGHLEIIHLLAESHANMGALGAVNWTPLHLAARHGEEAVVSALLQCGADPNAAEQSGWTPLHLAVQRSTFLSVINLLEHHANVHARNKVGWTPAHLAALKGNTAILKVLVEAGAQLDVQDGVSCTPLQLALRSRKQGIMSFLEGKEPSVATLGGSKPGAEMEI
# DCLK3 (human) = DCLK3 (human) (UniProt Q9C098)
# DAPK2 (human) = DAPK2 (human) (UniProt Q9UIK4)
# MAP3K4 (human) = MAP3K4 (human) (UniProt Q9Y6R4)
# PRKCI (human) = PRKCI (human) (UniProt P41743)
# NEK2 (human) = NEK2 (human) (UniProt P51955)
# MAP3K3 (human) = MAP3K3 (human) (UniProt Q99759)
# EPHB3 (human) = EPHB3 (human) (UniProt P54753)
# CDK4 CCND3 (human) = CDK4 CCND3 (human) (UniProt P11802+P30281)
# PDGFRB (human) = PDGFRB (human) (UniProt P09619)
# FES (human) = FES (human) (UniProt P07332)
# PKN2 (human) = PKN2 (human) (UniProt Q16513)
# DDR2 (human) = DDR2 (human) (UniProt Q16832)
# MAP4K2 (human) = MAP4K2 (human) (UniProt Q12851)
# IRAK1 (human) = IRAK1 (human) (UniProt P51617)
# INSRR (human) = INSRR (human) (UniProt P14616)
# ZAP70 (human) = ZAP70 (human) (UniProt P43403)
# MAP3K7 (human) = MAP3K7 (human) (UniProt O43318)
# SIK3 (human) = SIK3 (human) (UniProt Q9Y2K2)
# MAP3K1 (human) = MAP3K1 (human) (UniProt Q13233)
# MAP3K1 (human), sequence (Q13233 whole entry, looked up): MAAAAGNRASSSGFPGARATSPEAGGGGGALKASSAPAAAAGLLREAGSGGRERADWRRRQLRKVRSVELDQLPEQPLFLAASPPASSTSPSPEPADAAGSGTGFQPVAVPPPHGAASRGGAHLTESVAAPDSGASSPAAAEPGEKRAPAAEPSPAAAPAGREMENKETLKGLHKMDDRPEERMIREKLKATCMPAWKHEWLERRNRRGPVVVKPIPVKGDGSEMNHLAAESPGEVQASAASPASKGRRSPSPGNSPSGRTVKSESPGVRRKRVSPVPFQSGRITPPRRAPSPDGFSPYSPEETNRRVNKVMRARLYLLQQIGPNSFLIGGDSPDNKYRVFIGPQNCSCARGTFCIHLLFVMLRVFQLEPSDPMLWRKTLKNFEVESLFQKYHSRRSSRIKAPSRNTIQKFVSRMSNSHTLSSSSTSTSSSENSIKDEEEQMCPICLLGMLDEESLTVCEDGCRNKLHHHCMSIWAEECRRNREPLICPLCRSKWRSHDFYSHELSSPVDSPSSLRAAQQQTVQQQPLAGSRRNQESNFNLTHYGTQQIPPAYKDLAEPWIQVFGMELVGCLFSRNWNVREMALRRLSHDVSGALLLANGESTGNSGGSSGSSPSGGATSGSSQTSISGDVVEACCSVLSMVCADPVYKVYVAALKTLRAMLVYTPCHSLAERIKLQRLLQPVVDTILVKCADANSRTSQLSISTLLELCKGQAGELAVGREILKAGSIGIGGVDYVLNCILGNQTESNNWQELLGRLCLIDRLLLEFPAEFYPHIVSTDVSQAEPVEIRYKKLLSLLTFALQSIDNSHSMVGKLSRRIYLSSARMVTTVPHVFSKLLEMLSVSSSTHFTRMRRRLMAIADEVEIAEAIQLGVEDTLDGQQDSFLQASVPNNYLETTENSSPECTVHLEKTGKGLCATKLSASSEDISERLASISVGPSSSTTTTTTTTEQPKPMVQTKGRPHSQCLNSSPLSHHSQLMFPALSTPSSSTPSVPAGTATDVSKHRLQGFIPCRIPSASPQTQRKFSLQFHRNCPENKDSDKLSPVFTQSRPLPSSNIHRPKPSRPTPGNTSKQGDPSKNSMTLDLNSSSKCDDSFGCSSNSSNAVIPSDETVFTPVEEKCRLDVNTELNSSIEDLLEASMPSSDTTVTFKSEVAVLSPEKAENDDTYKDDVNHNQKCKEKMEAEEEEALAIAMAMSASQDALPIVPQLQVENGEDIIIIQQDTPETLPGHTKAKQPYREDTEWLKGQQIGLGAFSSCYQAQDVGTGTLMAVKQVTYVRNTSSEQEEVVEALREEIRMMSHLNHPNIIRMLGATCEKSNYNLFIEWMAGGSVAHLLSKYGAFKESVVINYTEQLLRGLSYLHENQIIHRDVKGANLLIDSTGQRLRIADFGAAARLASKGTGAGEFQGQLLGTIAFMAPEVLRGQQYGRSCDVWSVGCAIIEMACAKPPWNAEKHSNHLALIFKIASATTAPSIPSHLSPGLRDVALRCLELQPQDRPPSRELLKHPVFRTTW
# EPHA6 (human) = EPHA6 (human) (UniProt Q9UF33)
# PHKG2 (human) = PHKG2 (human) (UniProt P15735)
# PHKG2 (human), sequence (P15735 whole entry, looked up): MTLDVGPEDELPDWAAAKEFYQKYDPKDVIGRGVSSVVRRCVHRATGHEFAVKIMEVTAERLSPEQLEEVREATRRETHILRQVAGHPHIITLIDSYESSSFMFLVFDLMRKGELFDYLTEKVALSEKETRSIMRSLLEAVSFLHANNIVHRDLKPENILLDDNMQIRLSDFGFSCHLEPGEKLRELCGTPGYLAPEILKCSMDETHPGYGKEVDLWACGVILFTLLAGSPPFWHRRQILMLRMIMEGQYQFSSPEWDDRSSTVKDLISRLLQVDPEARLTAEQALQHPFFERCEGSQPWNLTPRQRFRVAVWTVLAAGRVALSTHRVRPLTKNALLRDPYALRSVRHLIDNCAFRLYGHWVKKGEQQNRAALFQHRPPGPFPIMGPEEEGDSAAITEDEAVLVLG
# MARK2 (human) = MARK2 (human) (UniProt Q7KZI7)
# MARK2 (human), sequence (Q7KZI7 whole entry, looked up): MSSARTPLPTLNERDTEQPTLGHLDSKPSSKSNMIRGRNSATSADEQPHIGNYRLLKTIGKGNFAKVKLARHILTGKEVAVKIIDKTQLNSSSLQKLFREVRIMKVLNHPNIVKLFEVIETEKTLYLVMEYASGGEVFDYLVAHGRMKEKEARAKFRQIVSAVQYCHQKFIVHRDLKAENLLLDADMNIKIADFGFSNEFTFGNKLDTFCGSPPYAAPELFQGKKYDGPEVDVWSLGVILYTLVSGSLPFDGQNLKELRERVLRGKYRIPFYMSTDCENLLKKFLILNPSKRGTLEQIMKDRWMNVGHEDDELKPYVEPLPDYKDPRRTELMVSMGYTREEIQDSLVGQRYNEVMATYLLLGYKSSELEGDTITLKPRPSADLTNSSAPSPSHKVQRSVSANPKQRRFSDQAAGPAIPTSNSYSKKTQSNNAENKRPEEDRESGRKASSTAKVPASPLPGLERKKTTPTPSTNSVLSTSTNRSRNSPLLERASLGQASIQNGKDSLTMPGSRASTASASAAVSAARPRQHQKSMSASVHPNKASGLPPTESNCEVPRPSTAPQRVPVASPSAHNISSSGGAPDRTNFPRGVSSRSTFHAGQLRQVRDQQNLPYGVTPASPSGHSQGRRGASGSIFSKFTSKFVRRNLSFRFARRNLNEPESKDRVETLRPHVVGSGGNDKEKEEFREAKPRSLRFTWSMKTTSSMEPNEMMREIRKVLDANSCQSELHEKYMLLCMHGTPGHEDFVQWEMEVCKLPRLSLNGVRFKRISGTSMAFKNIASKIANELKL
# ROCK1 (human) = ROCK1 (human) (UniProt Q13464)
# STK17A (human) = STK17A (human) (UniProt Q9UEE5)
Structure (SMILES),"kinase still bound, per cent of control (FGR (human)) [%]","kinase still bound, per cent of control (RIOK2 (human)) [%]","kinase still bound, per cent of control (EPHA5 (human)) [%]","kinase still bound, per cent of control [1] [%]","kinase still bound, per cent of control (EPHB1 (human)) [%]","kinase still bound, per cent of control (DCLK2 (human)) [%]","kinase still bound, per cent of control (LTK (human)) [%]","kinase still bound, per cent of control (WEE1 (human)) [%]","kinase still bound, per cent of control (RPS6KA4 KD1 (human)) [%]","kinase still bound, per cent of control (CDK18 (human)) [%]","kinase still bound, per cent of control (LIMK2 (human)) [%]","kinase still bound, per cent of control (CASK (human)) [%]","kinase still bound, per cent of control (PRKCQ (human)) [%]","kinase still bound, per cent of control (DSTYK (human)) [%]","kinase still bound, per cent of control (MAP2K5 (human)) [%]","kinase still bound, per cent of control (ANKK1 (human)) [%]","kinase still bound, per cent of control (DCLK3 (human)) [%]","kinase still bound, per cent of control (DAPK2 (human)) [%]","kinase still bound, per cent of control (MAP3K4 (human)) [%]","kinase still bound, per cent of control (PRKCI (human)) [%]",other results
COc1ccc(N(C(=O)Oc2c(C)cccc2C)c2ccnc(Nc3ccc(N4CCN(C)CC4)cc3)n2)c(OC)c1,0.15,83,0.15,84,0,44,1.2,85,100,100,0,90,21,49,0.55,100,100,100,23,62,"kinase still bound, per cent of control (NEK2 (human)): 100%; kinase still bound, per cent of control (MAP3K3 (human)): 0.75%; kinase still bound, per cent of control (EPHB3 (human)): 0%; kinase still bound, per cent of control (CDK4 CCND3 (human)): 26%; kinase still bound, per cent of control (PDGFRB (human)): 0%; kinase still bound, per cent of control (FES (human)): 0.35%; kinase still bound, per cent of control (PKN2 (human)): 19%; kinase still bound, per cent of control (DDR2 (human)): 0%; kinase still bound, per cent of control (MAP4K2 (human)): 1.6%; kinase still bound, per cent of control (IRAK1 (human)): 19%; kinase still bound, per cent of control (INSRR (human)): 100%; kinase still bound, per cent of control (ZAP70 (human)): 79%; kinase still bound, per cent of control (MAP3K7 (human)): 57%; kinase still bound, per cent of control (SIK3 (human)): 22%; kinase still bound, per cent of control (MAP3K1 (human)): 32%; kinase still bound, per cent of control (EPHA6 (human)): 0%; kinase still bound, per cent of control (PHKG2 (human)): 100%; kinase still bound, per cent of control (MARK2 (human)): 87%; kinase still bound, per cent of control (ROCK1 (human)): 65%; kinase still bound, per cent of control (STK17A (human)): 100%"
CNC(=O)c1cc(Oc2ccc(NC(=O)Nc3ccc(Cl)c(C(F)(F)F)c3)cc2)ccn1,53,97,30,100,30,100,88,100,85,70,57,90,84,100,0.3,100,75,87,98,100,"kinase still bound, per cent of control (NEK2 (human)): 100%; kinase still bound, per cent of control (MAP3K3 (human)): 86%; kinase still bound, per cent of control (EPHB3 (human)): 100%; kinase still bound, per cent of control (CDK4 CCND3 (human)): 79%; kinase still bound, per cent of control (PDGFRB (human)): 0%; kinase still bound, per cent of control (FES (human)): 74%; kinase still bound, per cent of control (PKN2 (human)): 100%; kinase still bound, per cent of control (DDR2 (human)): 14%; kinase still bound, per cent of control (MAP4K2 (human)): 100%; kinase still bound, per cent of control (IRAK1 (human)): 70%; kinase still bound, per cent of control (INSRR (human)): 97%; kinase still bound, per cent of control (ZAP70 (human)): 100%; kinase still bound, per cent of control (MAP3K7 (human)): 6.2%; kinase still bound, per cent of control (SIK3 (human)): 100%; kinase still bound, per cent of control (MAP3K1 (human)): 64%; kinase still bound, per cent of control (EPHA6 (human)): 9.2%; kinase still bound, per cent of control (PHKG2 (human)): 100%; kinase still bound, per cent of control (MARK2 (human)): 98%; kinase still bound, per cent of control (ROCK1 (human)): 74%; kinase still bound, per cent of control (STK17A (human)): 45%"
O=C1NC(=O)/C(=C/c2ccc3nccc(-c4ccncc4)c3c2)S1,69,37,91,57,90,91,22,100,79,56,100,59,60,61,46,47,11,1.7,96,67,"kinase still bound, per cent of control (NEK2 (human)): 64%; kinase still bound, per cent of control (MAP3K3 (human)): 75%; kinase still bound, per cent of control (EPHB3 (human)): 71%; kinase still bound, per cent of control (CDK4 CCND3 (human)): 100%; kinase still bound, per cent of control (PDGFRB (human)): 55%; kinase still bound, per cent of control (FES (human)): 100%; kinase still bound, per cent of control (PKN2 (human)): 31%; kinase still bound, per cent of control (DDR2 (human)): 63%; kinase still bound, per cent of control (MAP4K2 (human)): 5.8%; kinase still bound, per cent of control (IRAK1 (human)): 0.25%; kinase still bound, per cent of control (INSRR (human)): 70%; kinase still bound, per cent of control (ZAP70 (human)): 93%; kinase still bound, per cent of control (MAP3K7 (human)): 62%; kinase still bound, per cent of control (SIK3 (human)): 93%; kinase still bound, per cent of control (MAP3K1 (human)): 60%; kinase still bound, per cent of control (EPHA6 (human)): 83%; kinase still bound, per cent of control (PHKG2 (human)): 6%; kinase still bound, per cent of control (MARK2 (human)): 74%; kinase still bound, per cent of control (ROCK1 (human)): 51%; kinase still bound, per cent of control (STK17A (human)): 0.2%"
